pEC50: −log10 of the molar value. Activity calls are given as the source filed them. The calls are words filed in the database; no cut-off is given here.
Columns and labels:
[1] = Photocytotoxicity against human Bel7402 cells assessed as cell viability preincubated for 5 hrs followed by UVA-1 irradiation at 0.85 mW/cm'2 for 20 mins measured after 48 hrs by CCK8 assay; format: functional, cell-based; details: Bel-7402, light or radiation study
[2] = tested on: Bel-7402; assay: Photocytotoxicity against human Bel7402 cells assessed as production of reactive oxygen stress at 5 uM preincubated for 5 hrs followed by UVA-1 irradiation at 0.85 mW/cm'2 for 20 mins measured for 4 to 10 mins by DCFH-DA based fluorescence microscopic analysis; format: functional, cell-based
[3] = tested on: PANC-1; assay: Photocytotoxicity against human PANC1 cells assessed as cell viability pretreated with UVA-1 irradiation at 3.0 mW/cm'2 for 20 mins followed by cell addition measured after 48 hrs by CCK8 assay; format: functional, cell-based
[4] = tested on: Bel-7402; assay: Photocytotoxicity against human Bel7402 cells assessed as cell viability pretreated with UVA-1 irradiation at 3.0 mW/cm'2 for 20 mins followed by cell addition measured after 48 hrs by CCK8 assay; format: functional, cell-based
[5] = Photocytotoxicity against human PANC1 cells assessed as cell viability preincubated for 5 hrs followed by UVA-1 irradiation at 5.4 mW/cm'2 for 20 mins measured after 48 hrs by CCK8 assay; format: functional, cell-based; details: PANC-1, light or radiation study
[6] = tested on: PANC-1; assay: Photocytotoxicity against human PANC1 cells assessed as production of reactive oxygen stress at 5 uM preincubated for 5 hrs followed by UVA-1 irradiation at 3 mW/cm'2 for 20 mins measured after 5 hrs by HPLC analysis; format: functional, cell-based
[7] = tested on: PANC-1; assay: Photocytotoxicity against human PANC1 cells assessed as cell viability preincubated for 24 hrs with cells followed by UVA-1 irradiation for 20 mins at 3.0 mW/cm'2 measured after 48 hrs by CCK8 assay; format: functional, cell-based
[8] = tested on: PANC-1; assay: Photocytotoxicity against human PANC1 cells assessed as production of reactive oxygen stress at 5 uM preincubated for 5 hrs followed by UVA-1 irradiation at 0.85 mW/cm'2 for 20 mins measured for 4 to 10 mins by DCFH-DA based fluorescence microscopic analysis; format: functional, cell-based
[9] = Dark cytotoxicity against human PANC1 cells assessed as production of reactive oxygen stress at 5 uM after 5 hrs by DCFH-DA based fluorescence microscopic analysis in absence of UVA-1 irradiation; format: cell-based; details: panc-1, 5 h
[10] = tested on: PANC-1; assay: Photocytotoxicity against human PANC1 cells assessed as production of reactive oxygen stress at 5 uM preincubated for 5 hrs followed by UVA-1 irradiation at 3 mW/cm'2 for 20 mins by DCFH-DA based fluorescence microscopic analysis; format: functional, cell-based
[11] = tested on: Bel-7402; assay: Potency index, ratio of sunitinib EC50 to compound EC50 for human Bel7402 cells in presence of UVA-1 irradiation at 3 mW/cm'2; format: functional
[12] = Photocytotoxicity against human Bel7402 cells assessed as cell viability preincubated for 5 hrs followed by UVA-1 irradiation at 5.4 mW/cm'2 for 20 mins measured after 48 hrs by CCK8 assay; format: functional, cell-based; details: Bel-7402, light or radiation study
[13] = tested on: PANC-1; assay: Induction of apoptosis in human PANC1 cells assessed as early apoptotic cells at 2 uM preincubated for 5 hrs followed by UVA-1 irradiation at 3 mW/cm'2 for 20 mins measured after 24 hrs by Annexin V-FITC/propidium iodide staining-based flow cytometric analysis (reference value: 7.4%); format: functional
[14] = tested on: PANC-1; assay: Potency index, ratio of sunitinib EC50 to compound EC50 for human PANC1 cells in presence of UVA-1 irradiation at 3 mW/cm'2; format: functional
[15] = tested on: PANC-1; assay: Ratio of EC50 for human PANC1 cells in presence of UVA-1 irradiation at 0.85 mW/cm'2 to EC50 for human PANC1 cells in presence of UVA-1 irradiation at 3 mW/cm'2; format: functional
[16] = Photocytotoxicity against human PANC1 cells assessed as cell viability preincubated for 5 hrs with cells followed by UVA-1 irradiation at 3.0 mW/cm'2 for 20 mins measured after 48 hrs by CCK8 assay; format: functional, cell-based; details: PANC-1, light or radiation study
[17] = Photocytotoxicity against human PANC1 cells assessed as cell viability at 10 uM preincubated for 5 hrs with cells followed by white light irradiation at 0.015 mW/cm'2 for 20 mins measured after 48 hrs by CCK8 assay relative to control; format: functional; details: PANC-1, light or radiation study, read-out: Activity
[18] = tested on: Bel-7402; assay: Photocytotoxicity against human Bel7402 cells assessed as cell viability preincubated for 24 hrs with cells followed by UVA-1 irradiation for 20 mins at 3.0 mW/cm'2 measured after 48 hrs by CCK8 assay; format: functional, cell-based
[19] = Photocytotoxicity against human PANC1 cells assessed as cell viability preincubated for 5 hrs followed by UVA-1 irradiation at 0.85 mW/cm'2 for 20 mins measured after 48 hrs by CCK8 assay; format: functional, cell-based; details: PANC-1, light or radiation study
[20] = Induction of apoptosis in human PANC1 cells assessed as late apoptotic cells at 2 uM after 24 hrs by Annexin V-FITC/propidium iodide staining-based flow cytometric analysis in absence of UVA-1 irradiation (reference value: 1.5%); format: cell-based; details: panc-1, 24 h
[21] = Photocytotoxicity against human Bel7402 cells assessed as cell viability preincubated for 5 hrs with cells followed by white light irradiation at 0.015 mW/cm'2 for 20 mins measured after 48 hrs by CCK8 assay; format: functional, cell-based; details: Bel-7402, light or radiation study
[22] = Photocytotoxicity against human Bel7402 cells assessed as cell viability at 10 uM preincubated for 5 hrs with cells followed by white light irradiation at 0.015 mW/cm'2 for 20 mins measured after 48 hrs by CCK8 assay relative to control; format: functional; details: Bel-7402, light or radiation study, read-out: Activity
[23] = tested on: Bel-7402; assay: Ratio of EC50 for human Bel7402 cells in presence of UVA-1 irradiation at 0.85 mW/cm'2 to EC50 for human Bel7402 cells in presence of UVA-1 irradiation at 3 mW/cm'2; format: functional
[24] = Dark toxicity against human Bel7402 cells assessed as cell viability after 53 hrs by CCK8 assay in absence of UVA-1 irradiation; format: cell-based, Bel-7402
[25] = Dark toxicity against human PANC1 cells assessed as cell viability after 53 hrs by CCK8 assay in absence of UVA-1 irradiation; format: cell-based, PANC-1
[26] = Retention time of the compound at 5 uM by HPLC analysis; format: physicochemical
[27] = Photocytotoxicity against human PANC1 cells assessed as cell viability preincubated for 5 hrs with cells followed by white light irradiation at 0.015 mW/cm'2 for 20 mins measured after 48 hrs by CCK8 assay; format: functional, cell-based; details: PANC-1, light or radiation study
[28] = tested on: PANC-1; assay: Induction of apoptosis in human PANC1 cells assessed as late apoptotic cells at 2 uM preincubated for 5 hrs followed by UVA-1 irradiation at 3 mW/cm'2 for 20 mins measured after 24 hrs by Annexin V-FITC/propidium iodide staining-based flow cytometric analysis (reference value: 1.3%); format: functional
[29] = tested on: PANC-1; assay: Induction of apoptosis in human PANC1 cells assessed as viable cells at 2 uM preincubated for 5 hrs followed by UVA-1 irradiation at 3 mW/cm'2 for 20 mins measured after 24 hrs by Annexin V-FITC/propidium iodide staining-based flow cytometric analysis (reference value: 91%); format: functional; details: PANC-1, light or radiation study, read-out: Activity
[30] = Retention time of the compound in human PANC1 cells at 5 uM preincubated for 5 hrs followed by UVA-1 irradiation at 3 mW/cm'2 for 20 mins measured after 5 hrs by HPLC analysis; format: ADME, cell-based; details: panc-1, 5 µM
[31] = Induction of apoptosis in human PANC1 cells assessed as necrotic cells at 2 uM after 24 hrs by Annexin V-FITC/propidium iodide staining-based flow cytometric analysis in absence of UVA-1 irradiation (reference value: 0.5%); format: cell-based; details: panc-1, 24 h
[32] = Induction of apoptosis in human PANC1 cells assessed as early apoptotic cells at 2 uM after 24 hrs by Annexin V-FITC/propidium iodide staining-based flow cytometric analysis in absence of UVA-1 irradiation (reference value: 9.4%); format: cell-based; details: panc-1, 24 h
[33] = Retention time of the compound in human PANC1 cells at 5 uM after 5 hrs by HPLC analysis in absence of UVA-1 irradiation; format: ADME, cell-based; details: panc-1, 5 h
[34] = tested on: PANC-1; assay: Induction of apoptosis in human PANC1 cells assessed as necrotic cells at 2 uM preincubated for 5 hrs followed by UVA-1 irradiation at 3 mW/cm'2 for 20 mins measured after 24 hrs by Annexin V-FITC/propidium iodide staining-based flow cytometric analysis (reference value: 0.3%); format: functional
[35] = Photocytotoxicity against human Bel7402 cells assessed as cell viability preincubated for 5 hrs with cells followed by UVA-1 irradiation at 3.0 mW/cm'2 for 20 mins measured after 48 hrs by CCK8 assay; format: functional, cell-based; details: Bel-7402, light or radiation study
[36] = Induction of apoptosis in human PANC1 cells assessed as viable cells at 2 uM after 24 hrs by Annexin V-FITC/propidium iodide staining-based flow cytometric analysis in absence of UVA-1 irradiation (reference value: 88.6%); format: cell-based, PANC-1; details: read-out: Activity

Retention_time [26]: 68 min
Retention_time [30]: 68 min
Retention_time [33]: 68 min
SMILES: Cc1cn([C@H]2C[C@H](n3cc(CNC(=O)CCCCCOc4ccc5c(c4)-c4nc6cc(Cl)c(Cl)cc6nc4[C@@H]4C(C)(C)CCC[C@]54C)nn3)[C@@H](CO)O2)c(=O)[nH]c1=O
pEC50 [1]: 5.70
Activity [2]: Active
Activity [3]: inactive
Activity [4]: inactive
pEC50 [5]: 5.92
Activity [6]: Active
Activity [7]: Active
Activity [8]: Active
Activity [9]: Non-toxic
Activity [10]: Active
Ratio EC50 [11]: 10
pEC50 [12]: 6.21
Activity [13]: 11.9%
Ratio EC50 [14]: 20
Ratio EC50 [15]: 4
pEC50 [16]: 5.89
viability at 10 µM [17]: < 40%
Activity [18]: Active
pEC50 [19]: 5.24
Activity [20]: 1.4%
pEC50 [21]: < 5.00
viability at 10 µM [22]: < 40%
Ratio EC50 [23]: 3
EC50 at 53 h [24]: > 20000 nM
EC50 at 53 h [25]: ≥ 50000 nM
pEC50 [27]: < 5.00
Activity [28]: 44.1%
viability at 2 µM [29]: 40.5%
Activity [31]: 0.4%
Activity [32]: 8.8%
Activity [34]: 3.5%
pEC50 [35]: 6.17
viability at 24 h, 2 µM [36]: 89.4%

Source: ChEMBL document CHEMBL3745649, “Structure-activity relationship study of anticancer thymidine-quinoxaline conjugates under the low radiance of long wavelength ultraviolet light for photodynamic therapy” (Eur J Med Chem, 2016)
